# Measurements from paper PMC5129993, “Everolimus induces Met inactivation by disrupting the FKBP12/Met complex” (Oncotarget, 2016).
# What was measured:
# [1] = tested on: everolimus-resistant HCT116 cells; assay: Orthotopic murine colorectal cancer model (HCT116 in cecum); type: in vivo, Balb/C nude mice; conditions: orthotopic HCT116, four weeks after tumor implantation
# Description: The cecum was then placed
# Seven days after implantation, […]
# p/6 x larger diameter x (smaller diameter)2. […]
# diameter was assessed with ultrasonography (VEVO,
# Committee. Primary tumors in the cecum were excised
# The final tumor was measured with a caliper surgical site was isolated in a sterile fashion.
# J Am Chem Soc. 2003; 125: 8827-8837.
# Uncoupling signal transducers from oncogenic MET 6.
# 2. […] 2000; 25: 217-222.
# Unbinding pathways from the glucocorticoid receptor shed 7. Michnick SW, Rosen MK, Wandless TJ, Karplus M, […]
# Solution structure of FKBP, a rotamase a naturally occurring, clinically relevant mutant receptor. J enzyme and receptor for FK506 and rapamycin. Science.
# 3. […] Mustafi SM, LeMaster DM, Hernández G. Differential […]
# cytoreductive antitumor activity in vivo.
# HADDOCK2.0 on the CAPRI targets. Proteins.
# 726-733. JR, Soisson SM, Lumb KJ. Structural basis for selective
# [2] = tested on: phospho-Met; assay: Western blot analysis of Met phosphorylation in human cancer cell lines; type: cell-based; conditions: 24 hours; for phosphorylation of Met: 786-O EveR and HCT116 cells, 1 μM (siRNA 50 nM); for Met phosphorylation: 0.5 μM
# Description: (§1) Total protein extracts obtained from cell cultures or tumor specimens were resolved by 4-15% SDS-PAGE and probed with anti-human, polyclonal pMet Y1349, polyclonal Met, monoclonal pp70S6K T412 and p70S6K (Merck-Millipore Darmstadt, Germany), monoclonal actin (Sigma-Aldrich, Milan, Italy), monoclonal FKBP12, polyclonal mTOR, Raptor, and Rictor. Co-immunoprecipitation analyses were performed with anti-Met; membranes were blotted with anti-FKBP12. The total lysate from 786-O, 786-O EveR and HCT116 cells served as positive control. Immunoreactive proteins were visualized by enhanced chemiluminescence (Pierce, Rockford, IL, USA). Densitometry was performed with Image J software (NIH, Bethesda, MD, USA).
# [3] = tested on: phospho-p70S6K; assay: Western blot analysis of p70S6K phosphorylation in human cancer cell lines; type: cell-based; conditions: 24 hours; for phosphorylation of p70S6K: 786-O EveR and HCT116 cells, 1 μM (siRNA 50 nM); for phospho-p70S6K: 786-O and MDA-MB-231 cells
# Description: as §1
# [4] = tested on: everolimus-resistant HCT116 cells; assay: Subcutaneous murine colorectal cancer model (HCT116 xenograft); conditions: for Median survival: subcutaneous HCT116 xenograft, 10 mice/group
# Description: We subcutaneously xenografted everolimus-resistant HCT116 cells into 50 four- to six-week-old female BALB/c athymic nu+/nu+ (nude) mice (Charles River Laboratories, Milan, Italy). Forty animals were used to carry out the subcutaneous colorectal cancer model experiment; when tumors reached a mean volume of 1 cm^3, 10 animals were euthanized, tumors were divided into 2-mm-sized pieces and microsurgically implanted in the cecum of 40 Balb/C nude mice for the orthotopic experiment. See Supplementary Methods for further details about the surgical procedure and the treatment schedule. […]
# [5] = tested on: T47D cells with Met M1268T mutant; assay: Cell density assay (MTT), Met-transduced T47D; type: cell-based, human
# Description: (§2) The percentage of cell density was determined using the 3-(4,5-dimethylthiazol-2-yl)-2,5-diphenyltetrazolium bromide (MTT) assay according to the manufacturer's instructions (Sigma-Aldrich, Milan, Italy). […]
# (§3) (iii) an active conformation. The resulting selected Met [Follenzi A, Nat Genet. 2000]. […]
# (§4) We used the pRRL.sin.PPT.hCMV.GFP.
# (§5) Cα] at the 80 loop level (frame 13). To generate the Met/pre vector as control. […]
# [6] = tested on: T47D cells with Met Y1235D mutant; assay: Cell density assay (MTT), Met-transduced T47D; type: cell-based, human
# Description: as §2, §3, §4, §5
# [7] = tested on: T47D cells with wt Met; assay: Cell density assay (MTT), Met-transduced T47D; type: cell-based, human
# Description: as §2, §3, §4, §5
# [8] = tested on: 786-O cells; assay: Cell density assay (MTT); type: cell-based; conditions: Homo sapiens, 786-0, 72 hours, read-out: concentration causing 50% reduction of cell density
# Description: (§6) The percentage of cell density was determined using the 3-(4,5-dimethylthiazol-2-yl)-2,5-diphenyltetrazolium bromide (MTT) assay according to the manufacturer's instructions (Sigma-Aldrich, Milan, Italy).
# [9] = tested on: HCT116 cells; assay: Cell density assay (MTT); type: cell-based; conditions: Homo sapiens, HCT-116; HCT116, data not shown; read-out: concentration causing 50% reduction of cell density
# Description: as §6
# [10] = tested on: ACHN cells; assay: Cell density assay (MTT); type: cell-based; conditions: Homo sapiens, 72 hours, read-out: concentration causing 50% reduction of cell density
# Description: as §6
# [11] = tested on: MDA-MB-231 cells; assay: Cell density assay (MTT); type: cell-based; conditions: Homo sapiens, MDA-MB-231, 72 hours, read-out: concentration causing 50% reduction of cell density
# Description: as §6
# [12] = tested on: MDA-MB-361 cells; assay: Cell density assay (MTT); type: cell-based; conditions: Homo sapiens, MDA-MB-361, 72 hours, read-out: concentration causing 50% reduction of cell density
# Description: as §6
# [13] = tested on: NCI-H1975 cells; assay: Cell density assay (MTT); type: cell-based; conditions: Homo sapiens, NCI-H1975, 72 hours, read-out: concentration causing 50% reduction of cell density
# Description: as §6
# [14] = tested on: PC-9 cells; assay: Cell density assay (MTT); type: cell-based; conditions: Homo sapiens, PC-9, 72 hours, read-out: concentration causing 50% reduction of cell density
# Description: as §6
# [15] = target: T1, Met D1228N (Homo sapiens, UniProt P08581, D1228N); assay: In vitro Met kinase inhibition assay (ProQinase, radiometric 33PanQinase); type: biochemical
# T1 construct: purchased ProQinase GmbH (screening service)
# Description: (§7) In vitro Met kinase inhibition assay equilibrated using NAMD2.8 [Phillips JC, J Comput Chem.
# (§8) The Met kinase inhibition by everolimus was analyzed 2005], and the final MD simulation was conducted applying […]
# (§9) ProQinase (ProQinase GmbH, Freiburg, Germany). Briefly, J Med Chem. 2013].
# (§10) -10 - trajectories. The complex was aligned on the Cα atoms of different concentrations (standard range: 3x10M–1x10 Met, while the backbone atoms Root-mean-square deviation 5M; semilog dilutions) against human recombinant wt […]
# (§11) All assays were Å. Finally, the representative structure of the most populated performed at the corresponding apparent ATP Km of each cluster was choosen as the final Met/FKBP12 complex. […]
# [16] = target: T2, Met Y1230C (Homo sapiens, UniProt P08581, Y1230C); assay: as above; type: biochemical
# T2 construct: purchased ProQinase GmbH (screening service)
# Description: as §7, §8, §9, §10, §11
# [17] = target: T3, Met Wild-type (Homo sapiens, UniProt P08581); assay: as above; type: biochemical; conditions: Met TK Wild-type; 0.3 nM to 10 μM, singlicate; apparent ATP Km
# T3 construct: purchased ProQinase GmbH (screening service)
# Description: as §7, §8, §9, §10, §11
# [18] = target: T4, Met D1228H (Homo sapiens, UniProt P08581, D1228H); assay: as above; type: biochemical
# T4 construct: purchased ProQinase GmbH (screening service)
# Description: as §7, §8, §9
# (§12) -10 - trajectories. The complex was aligned on the Cα atoms of different concentrations (standard range: 3x10M–1x10 Met, while the backbone atoms Root-mean-square deviation 5M; semilog dilutions) against human recombinant wt
# (§13) Met and nine Met mutant protein kinases, and IC values (RMSD) of FKBP12 was measured and used to cluster the 50 trajectories. The cluster analysis was performed using ptraj […]
# as §11
# [19] = target: T5, Met Y1230D (Homo sapiens, UniProt P08581, Y1230D); assay: as above; type: biochemical
# T5 construct: purchased ProQinase GmbH (screening service)
# T5 sequence (P08581 25-1390 Y1230D): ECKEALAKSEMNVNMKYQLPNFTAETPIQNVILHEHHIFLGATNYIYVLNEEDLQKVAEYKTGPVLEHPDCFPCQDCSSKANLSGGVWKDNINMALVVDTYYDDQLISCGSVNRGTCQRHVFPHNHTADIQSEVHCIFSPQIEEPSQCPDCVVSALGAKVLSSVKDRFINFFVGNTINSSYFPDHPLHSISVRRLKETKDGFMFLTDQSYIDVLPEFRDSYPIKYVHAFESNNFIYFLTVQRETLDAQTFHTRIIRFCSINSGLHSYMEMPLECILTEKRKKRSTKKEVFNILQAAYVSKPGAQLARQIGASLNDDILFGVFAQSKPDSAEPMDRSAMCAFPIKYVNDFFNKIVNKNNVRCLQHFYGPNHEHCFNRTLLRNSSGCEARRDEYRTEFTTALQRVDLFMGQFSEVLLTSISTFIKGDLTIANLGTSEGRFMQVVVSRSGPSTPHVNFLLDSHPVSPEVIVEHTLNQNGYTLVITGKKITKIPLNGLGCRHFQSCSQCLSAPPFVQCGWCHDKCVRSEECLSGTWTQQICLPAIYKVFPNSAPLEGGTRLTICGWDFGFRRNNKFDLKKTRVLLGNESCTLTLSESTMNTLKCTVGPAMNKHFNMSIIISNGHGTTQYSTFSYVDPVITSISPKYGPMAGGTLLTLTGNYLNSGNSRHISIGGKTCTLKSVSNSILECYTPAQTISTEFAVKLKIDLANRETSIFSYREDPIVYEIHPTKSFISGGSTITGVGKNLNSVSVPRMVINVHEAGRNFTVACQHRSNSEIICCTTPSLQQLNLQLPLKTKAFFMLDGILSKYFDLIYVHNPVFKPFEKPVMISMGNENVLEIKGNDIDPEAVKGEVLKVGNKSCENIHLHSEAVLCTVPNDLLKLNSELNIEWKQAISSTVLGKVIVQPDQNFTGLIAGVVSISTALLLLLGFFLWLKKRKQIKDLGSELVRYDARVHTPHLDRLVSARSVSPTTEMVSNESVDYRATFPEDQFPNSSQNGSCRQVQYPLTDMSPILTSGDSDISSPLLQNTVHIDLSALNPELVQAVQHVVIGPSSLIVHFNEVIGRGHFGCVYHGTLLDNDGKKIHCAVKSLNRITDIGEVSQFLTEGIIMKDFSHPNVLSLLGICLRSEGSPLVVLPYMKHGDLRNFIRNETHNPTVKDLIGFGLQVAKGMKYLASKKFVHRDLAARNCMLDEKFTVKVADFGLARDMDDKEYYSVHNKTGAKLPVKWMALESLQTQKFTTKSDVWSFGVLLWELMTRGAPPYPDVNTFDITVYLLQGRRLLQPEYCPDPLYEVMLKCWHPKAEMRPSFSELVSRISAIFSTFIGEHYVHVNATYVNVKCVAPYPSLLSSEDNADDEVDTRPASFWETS
# Description: as §7, §8, §9, §12, §13, §11
# [20] = target: T6, Met Y1230A (Homo sapiens, UniProt P08581, Y1230A); assay: as above; type: biochemical
# T6 construct: purchased ProQinase GmbH (screening service)
# Description: as §7, §8, §9, §12, §13, §11
# [21] = target: T7, Met F1200I (Homo sapiens, UniProt P08581, F1200I); assay: as above; type: biochemical
# T7 construct: purchased ProQinase GmbH (screening service)
# Description: as §7, §8, §9, §12, §13, §11
# [22] = target: T8, Met Y1230H (Homo sapiens, UniProt P08581, Y1230H); assay: as above; type: biochemical
# T8 construct: purchased ProQinase GmbH (screening service)
# T8 sequence (P08581 25-1390 Y1230H): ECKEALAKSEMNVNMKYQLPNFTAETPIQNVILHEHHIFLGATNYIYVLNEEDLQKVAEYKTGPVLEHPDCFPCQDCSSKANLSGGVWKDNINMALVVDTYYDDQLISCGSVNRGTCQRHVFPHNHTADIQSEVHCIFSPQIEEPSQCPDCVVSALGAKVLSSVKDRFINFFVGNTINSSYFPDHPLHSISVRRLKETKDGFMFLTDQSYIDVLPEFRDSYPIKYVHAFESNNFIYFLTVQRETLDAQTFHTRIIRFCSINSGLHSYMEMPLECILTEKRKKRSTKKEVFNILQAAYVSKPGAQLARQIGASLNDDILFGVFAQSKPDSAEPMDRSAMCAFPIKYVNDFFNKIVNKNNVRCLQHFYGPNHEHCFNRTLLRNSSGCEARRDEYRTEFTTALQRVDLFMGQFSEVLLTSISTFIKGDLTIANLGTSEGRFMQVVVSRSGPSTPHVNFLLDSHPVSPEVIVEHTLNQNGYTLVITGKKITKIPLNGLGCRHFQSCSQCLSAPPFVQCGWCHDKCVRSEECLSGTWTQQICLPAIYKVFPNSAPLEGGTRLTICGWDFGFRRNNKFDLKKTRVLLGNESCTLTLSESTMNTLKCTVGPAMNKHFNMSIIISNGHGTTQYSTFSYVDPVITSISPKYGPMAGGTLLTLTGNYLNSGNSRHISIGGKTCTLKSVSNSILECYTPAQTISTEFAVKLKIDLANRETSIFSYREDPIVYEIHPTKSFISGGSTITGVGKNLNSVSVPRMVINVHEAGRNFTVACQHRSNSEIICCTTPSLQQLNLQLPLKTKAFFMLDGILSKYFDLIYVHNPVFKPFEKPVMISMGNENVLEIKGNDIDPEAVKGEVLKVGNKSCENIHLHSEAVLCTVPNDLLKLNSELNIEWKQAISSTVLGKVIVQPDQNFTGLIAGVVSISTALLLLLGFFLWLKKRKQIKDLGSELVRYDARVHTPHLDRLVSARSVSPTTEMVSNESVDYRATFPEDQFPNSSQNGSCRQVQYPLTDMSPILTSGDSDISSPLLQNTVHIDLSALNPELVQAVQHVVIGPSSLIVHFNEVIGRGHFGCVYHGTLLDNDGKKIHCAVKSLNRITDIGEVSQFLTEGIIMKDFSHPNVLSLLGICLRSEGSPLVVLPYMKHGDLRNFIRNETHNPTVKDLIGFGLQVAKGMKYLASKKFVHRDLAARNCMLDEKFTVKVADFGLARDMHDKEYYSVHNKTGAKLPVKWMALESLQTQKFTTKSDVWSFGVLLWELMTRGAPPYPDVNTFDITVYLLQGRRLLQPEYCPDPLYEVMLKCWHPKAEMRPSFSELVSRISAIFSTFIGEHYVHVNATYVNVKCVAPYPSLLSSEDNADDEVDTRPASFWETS
# Description: as §7, §8, §9, §12, §13, §11
# [23] = target: T9, Met M1250T (Homo sapiens, UniProt P08581, M1250T); assay: as above; type: biochemical
# T9 construct: purchased ProQinase GmbH (screening service)
# T9 sequence (P08581 25-1390 M1250T): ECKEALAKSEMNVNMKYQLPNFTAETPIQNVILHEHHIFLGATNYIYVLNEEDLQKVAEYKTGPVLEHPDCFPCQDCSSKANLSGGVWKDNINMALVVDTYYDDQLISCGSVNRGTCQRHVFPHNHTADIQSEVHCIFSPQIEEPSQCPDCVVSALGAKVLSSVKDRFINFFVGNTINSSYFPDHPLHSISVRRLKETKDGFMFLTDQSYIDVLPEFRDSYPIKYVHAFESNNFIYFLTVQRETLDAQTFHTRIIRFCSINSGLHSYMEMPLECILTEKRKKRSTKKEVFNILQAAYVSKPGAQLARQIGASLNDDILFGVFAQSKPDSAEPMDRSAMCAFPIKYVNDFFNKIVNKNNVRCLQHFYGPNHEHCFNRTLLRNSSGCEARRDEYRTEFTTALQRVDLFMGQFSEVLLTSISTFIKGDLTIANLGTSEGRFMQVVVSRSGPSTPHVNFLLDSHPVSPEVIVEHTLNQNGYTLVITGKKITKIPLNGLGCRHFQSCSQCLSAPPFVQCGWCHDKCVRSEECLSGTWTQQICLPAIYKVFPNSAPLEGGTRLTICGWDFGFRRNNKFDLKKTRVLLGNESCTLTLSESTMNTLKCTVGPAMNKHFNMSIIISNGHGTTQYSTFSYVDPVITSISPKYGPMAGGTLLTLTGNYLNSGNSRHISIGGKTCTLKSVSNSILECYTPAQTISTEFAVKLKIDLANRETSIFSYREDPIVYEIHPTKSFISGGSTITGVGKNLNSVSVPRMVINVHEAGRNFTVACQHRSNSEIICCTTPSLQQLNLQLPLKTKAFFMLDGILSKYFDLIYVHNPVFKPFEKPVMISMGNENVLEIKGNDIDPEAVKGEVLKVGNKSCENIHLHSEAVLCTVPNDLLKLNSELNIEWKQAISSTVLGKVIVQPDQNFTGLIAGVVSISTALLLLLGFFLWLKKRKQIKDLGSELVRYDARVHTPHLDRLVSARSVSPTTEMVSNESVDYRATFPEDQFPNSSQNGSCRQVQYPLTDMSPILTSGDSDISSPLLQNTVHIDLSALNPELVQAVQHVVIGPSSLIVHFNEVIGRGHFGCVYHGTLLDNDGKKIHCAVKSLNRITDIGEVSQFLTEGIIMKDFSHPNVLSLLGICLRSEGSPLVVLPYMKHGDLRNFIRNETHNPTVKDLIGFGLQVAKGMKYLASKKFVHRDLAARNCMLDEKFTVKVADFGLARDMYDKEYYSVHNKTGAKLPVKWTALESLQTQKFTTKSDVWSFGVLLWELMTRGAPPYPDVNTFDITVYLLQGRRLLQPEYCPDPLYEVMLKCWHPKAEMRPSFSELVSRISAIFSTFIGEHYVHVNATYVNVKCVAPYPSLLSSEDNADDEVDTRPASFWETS
# Description: as §7, §8, §9, §12, §13, §11
# [24] = tested on: 786-O EveR (everolimus-resistant) cells; assay: Cell density assay (MTT); type: cell-based; conditions: Homo sapiens, 786-0, data not shown, read-out: concentration causing 50% reduction of cell density
# Description: as §2
# [25] = target: T10, FKBP12/Met complex (Homo sapiens, UniProt P62942); assay: Co-immunoprecipitation of FKBP12 with anti-Met antibody; type: cell-based; conditions: 0.5 μM, 24 hours
# T10 construct: immunoprecipitated total cell lysates from everolimus-treated and -untreated 786-O cells; endogenous in cells; host or cells: 786-O (also 786-O EveR and HCT116)
# T10 sequence (P62942 2-108 limits assumed, one chain of several): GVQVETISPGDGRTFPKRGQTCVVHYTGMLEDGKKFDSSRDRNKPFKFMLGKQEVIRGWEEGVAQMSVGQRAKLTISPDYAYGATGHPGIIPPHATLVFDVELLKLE
# Description: as §1
# [26] = day 42, 6 weeks after cell injection, everolimus 5 mg/kg per os, PHA665752 20 mg/kg i.v., five times a week for 2 weeks
smiles,measurement,setting,value
Cc1[nH]c(/C=C2\C(=O)Nc3ccc(S(=O)(=O)Cc4c(Cl)cccc4Cl)cc32)c(C)c1C(=O)N1CCC[C@@H]1CN1CCCC1 [PHA665752],tumor volume,[1],greatly reduced
same,tumor weight,[1],greatly reduced
same,phosphorylation of Met,[2],reduced the phosphorylation of Met and p70S6K
same,phosphorylation of p70S6K,[3],reduced the phosphorylation of Met and p70S6K
same,tumor growth inhibition,[4]; [26],85%
same,tumor growth inhibition,"[4]; end of the experiment, same regimen",30%
same,Median survival,[4],57 days
same,sensitivity to everolimus (cell density),"[5]; T47D Met M1268T, PHA665752 1 μM + everolimus 1 μM, 72 hours, P <0.01",significantly restored sensitivity to everolimus
same,sensitivity to everolimus (cell density),"[6]; T47D Met Y1235D, PHA665752 1 μM + everolimus 1 μM, 72 hours, P <0.01",significantly restored sensitivity to everolimus
same,sensitivity to everolimus (cell density),"[7]; T47D wt Met, PHA665752 1 μM + everolimus 1 μM, 72 hours, P <0.01",significantly restored sensitivity to everolimus
CO[C@H]1C[C@@H]2CC[C@@H](C)[C@@](O)(O2)C(=O)C(=O)N2CCCC[C@H]2C(=O)O[C@H]([C@H](C)C[C@@H]2CC[C@@H](OCCO)[C@H](OC)C2)CC(=O)[C@H](C)/C=C(\C)[C@@H](O)[C@@H](OC)C(=O)[C@H](C)C[C@H](C)/C=C/C=C/C=C/1C [everolimus],tumor volume,[1],large tumors in the cecum and peritoneum
same,phosphorylation of Met,[2],did not affect the phosphorylation of Met or p70S6K
same,Met phosphorylation,"[2]; renal, breast and lung everolimus-sensitive cell lines",inhibition of Met phosphorylation
same,phosphorylation of p70S6K,[3],did not affect the phosphorylation of Met or p70S6K
same,p70S6K phosphorylation,"[3]; renal, breast and lung everolimus-sensitive cell lines, 0.5 μM",decreased p70S6K phosphorylation
same,tumor growth inhibition,[4]; [26],35%
same,Median survival,[4],37.5 days
same,IC50,[8],≤ 0.5 µM
same,IC50,[9],≥ 5 µM
same,IC50,[10],≤ 0.5 µM
same,IC50,[11],≤ 0.5 µM
same,IC50,[12],≤ 0.5 µM
same,IC50,[13],≤ 0.5 µM
same,IC50,[14],≤ 0.5 µM
same,IC50,[15],> 10 µM
same,IC50,[16],> 10 µM
same,IC50,[17],> 10 µM
same,IC50,[18],> 10 µM
same,IC50,[19],> 10 µM
same,IC50,[20],> 10 µM
same,IC50,[21],> 10 µM
same,IC50,[22],> 10 µM
same,IC50,[23],> 10 µM
same,IC50,[24],≥ 5 µM
same,amount of FKBP12 co-immunoprecipitated with Met,[25]; 786-O cells,lower
same,amount of FKBP12 co-immunoprecipitated with Met,[25]; everolimus-resistant 786-O EveR and HCT116 cells,not reduced
same,IC50,"[5]; Homo sapiens, T47D with Met M1268T, read-out: drug concentration causing 50% reduction of cell density",> 0.5 µM
same,IC50,"[6]; Homo sapiens, T47D with Met Y1235D, read-out: drug concentration causing 50% reduction of cell density",> 0.5 µM
same,IC50,"[7]; Homo sapiens, T47D with wt Met, read-out: drug concentration causing 50% reduction of cell density",> 0.5 µM
CN(C)C1CCN(C(=O)c2ccc(NC(=O)Nc3ccc(-c4nc(N5CCOCC5)nc(N5CCOCC5)n4)cc3)cc2)CC1 [PKI-587],Met phosphorylation,[2]; 786-O and MDA-MB-231 cells,neither PKI-587 nor OSI-027 inhibited Met phosphorylation
same,phospho-p70S6K,[3]; 0.5 μM,reduced phospho-p70S6K
COc1cccc2cc(-c3nc([C@H]4CC[C@H](C(=O)O)CC4)n4ncnc(N)c34)[nH]c12 [OSI-027],Met phosphorylation,[2]; 786-O and MDA-MB-231 cells,neither PKI-587 nor OSI-027 inhibited Met phosphorylation
same,phospho-p70S6K,[3]; 0.5 μM,reduced phospho-p70S6K
